ChEMBL document CHEMBL5038586, “Thiazolidinedione "Magic Bullets" Simultaneously Targeting PPARγ and HDACs: Design, Synthesis, and Investigations of their In Vitro and In Vivo Antitumor Effects” (J Med Chem, 2021)
The source made the active and inactive calls. The rule behind the calls is not given here.

Legend:
CCRF-CEM [1] = assay: Cytotoxicity against human CEM cells assessed as cell death incubated for 20 hrs measured by DNS assay; format: functional
HeLa [2] = assay: Cytotoxicity against human HeLa cells assessed as cell death incubated for 20 hrs measured by DNS assay; format: functional
Histone deacetylase 8 = molecular target: T1, Histone deacetylase 8 (Homo sapiens, UniProt Q9BY41); assay: Inhibition of recombinant human HDAC8 using Boc-Lys (trifluoroacetyl)-AMC as substrate preincubated for 1 hr followed by substrate addition and measured after 1 hr by micro plate reader analysis
T1 sequence (Q9BY41 whole entry): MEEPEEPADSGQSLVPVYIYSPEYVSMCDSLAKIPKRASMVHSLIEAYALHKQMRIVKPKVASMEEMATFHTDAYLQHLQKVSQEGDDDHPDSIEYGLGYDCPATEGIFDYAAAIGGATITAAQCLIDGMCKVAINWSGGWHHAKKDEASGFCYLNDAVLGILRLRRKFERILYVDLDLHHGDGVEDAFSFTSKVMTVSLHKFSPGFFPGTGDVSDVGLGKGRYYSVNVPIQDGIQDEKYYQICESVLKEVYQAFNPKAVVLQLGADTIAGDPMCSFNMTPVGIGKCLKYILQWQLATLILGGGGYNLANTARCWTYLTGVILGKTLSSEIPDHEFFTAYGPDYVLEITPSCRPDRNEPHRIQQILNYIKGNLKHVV

[3] = molecular target: T2, Histone deacetylase 8 (Homo sapiens) (UniProt Q9BY41); assay: Inhibition of recombinant human HDAC8 using Boc-Lys (trifluoroacetyl)-AMC as substrate ay 35 uM preincubated for 1 hr followed by substrate addition and measured after 1 hr by micro plate reader analysis
T2 sequence (whole entry): T1 sequence (Q9BY41 whole entry)

Histone deacetylase 4 [4] = molecular target: T3, Histone deacetylase 4 (Homo sapiens, UniProt P56524); assay: Inhibition of recombinant human HDAC4 using Boc-Lys (trifluoroacetyl)-AMC as substrate ay 35 uM preincubated for 1 hr followed by substrate addition and measured after 1 hr by micro plate reader analysis
Histone deacetylase 4 [5] = molecular target: T3, Histone deacetylase 4; assay: Inhibition of recombinant human HDAC4 using Boc-Lys (trifluoroacetyl)-AMC as substrate preincubated for 1 hr followed by substrate addition and measured after 1 hr by micro plate reader analysis
HeLa [6] = assay: Cytotoxicity against human HeLa cells assessed as cell death incubated at 10 uM for 20 hrs measured by DNS assay; format: functional
MDA-MB-231 [7] = assay: Cytotoxicity against human MDA-MB-231 cells assessed as cell death incubated at 10 uM for 20 hrs measured by DNS assay; format: functional
HS27 [8] = assay: Cytotoxicity against human HS-27 cells assessed as cell death incubated at 10 uM for 20 hrs measured by DNS assay; format: toxicity, cell-based; details: hs27, 20 h
Ramos [9] = assay: Cytotoxicity against human Ramos cells assessed as cell death incubated for 20 hrs measured by DNS assay; format: functional
Ramos [10] = assay: Cytotoxicity against human Ramos cells assessed as cell death incubated at 10 uM for 20 hrs measured by DNS assay; format: functional
[11] = Selectivity index, ratio of CC50 for human HS-27 cells to CC50 for human CEM cells; format: functional
SH-SY5Y [12] = assay: Cytotoxicity against human SH-SY5Y cells assessed as cell death incubated at 10 uM for 20 hrs measured by DNS assay; format: functional
[13] = Selectivity index, ratio of CC50 for human HS-27 cells to CC50 for human Ramos cells; format: functional
CCRF-CEM [14] = assay: Cytotoxicity against human CEM cells assessed as cell death incubated at 10 uM for 20 hrs measured by DNS assay; format: functional
HL-60 = assay: Cytotoxicity against human HL-60 cells assessed as cell death incubated at 10 uM for 20 hrs measured by DNS assay; format: functional
SH-SY5Y [15] = assay: Cytotoxicity against human SH-SY5Y cells assessed as cell death incubated for 20 hrs measured by DNS assay; format: functional
HS27 [16] = assay: Cytotoxicity against human HS-27 cells assessed as cell death incubated for 20 hrs measured by DNS assay; format: toxicity, cell-based; details: hs27, 20 h
[17] = Toxicity in SCID mouse xenografted with human CEM cells assessed as behavioral changes at 50 mg/kg, ip; format: organism-based, CCRF-CEM; details: in vivo
[18] = Toxicity in SCID mouse xenografted with human CEM cells assessed as effect on body weight at 50 mg/kg, ip; format: organism-based, CCRF-CEM; details: in vivo
[19] = Toxicity in SCID mouse xenografted with human CEM cells assessed as effect on body weight at 20 mg/kg, ip; format: organism-based, CCRF-CEM; details: in vivo
MDA-MB-231 [20] = assay: Cytotoxicity against human MDA-MB-231 cells assessed as cell death incubated for 20 hrs measured by DNS assay; format: functional
[21] = Selectivity index, ratio of CC50 for human HS-27 cells to CC50 for human HeLa cells; format: functional
[22] = Selectivity index, ratio of CC50 for human HS-27 cells to CC50 for human MDA-MB-231 cells; format: functional
CCRF-CEM [23] = assay: Cytotoxicity against human CEM cells assessed as cell death incubated at 50 uM for 20 hrs measured by DNS assay; format: functional
[24] = Selectivity index, ratio of CC50 for human HS-27 cells to CC50 for human SH-SY5Y cells; format: functional

T3 sequence (P56524 whole entry): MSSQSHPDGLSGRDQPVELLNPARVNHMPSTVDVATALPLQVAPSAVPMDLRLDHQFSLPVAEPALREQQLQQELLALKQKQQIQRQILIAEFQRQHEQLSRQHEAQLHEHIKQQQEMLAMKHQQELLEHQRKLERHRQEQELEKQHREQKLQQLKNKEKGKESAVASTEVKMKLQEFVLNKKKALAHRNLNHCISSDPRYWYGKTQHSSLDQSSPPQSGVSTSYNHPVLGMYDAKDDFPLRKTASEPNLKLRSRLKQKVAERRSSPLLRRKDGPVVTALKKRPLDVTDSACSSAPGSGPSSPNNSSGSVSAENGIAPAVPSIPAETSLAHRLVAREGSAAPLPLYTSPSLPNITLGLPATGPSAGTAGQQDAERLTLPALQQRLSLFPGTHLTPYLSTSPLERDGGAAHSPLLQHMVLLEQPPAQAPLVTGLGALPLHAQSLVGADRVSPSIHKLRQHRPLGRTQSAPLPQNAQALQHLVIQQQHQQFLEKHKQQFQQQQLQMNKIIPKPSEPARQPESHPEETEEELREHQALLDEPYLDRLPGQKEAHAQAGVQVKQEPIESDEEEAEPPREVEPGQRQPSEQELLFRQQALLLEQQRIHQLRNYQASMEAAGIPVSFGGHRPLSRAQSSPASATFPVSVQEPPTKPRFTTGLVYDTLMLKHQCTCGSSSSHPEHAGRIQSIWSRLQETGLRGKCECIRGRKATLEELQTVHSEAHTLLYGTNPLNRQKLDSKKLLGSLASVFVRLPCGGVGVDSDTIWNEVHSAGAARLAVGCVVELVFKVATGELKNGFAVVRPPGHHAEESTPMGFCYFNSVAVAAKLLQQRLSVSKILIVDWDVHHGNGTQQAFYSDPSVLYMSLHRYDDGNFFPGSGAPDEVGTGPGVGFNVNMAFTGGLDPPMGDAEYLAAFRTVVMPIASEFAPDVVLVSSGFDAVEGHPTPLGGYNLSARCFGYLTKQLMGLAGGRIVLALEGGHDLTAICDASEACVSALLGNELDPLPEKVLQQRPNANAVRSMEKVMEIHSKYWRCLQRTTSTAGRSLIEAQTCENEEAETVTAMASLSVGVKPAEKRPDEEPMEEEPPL

IC50 (Histone deacetylase 8)	inhibition [3]	inhibition (Histone deacetylase 4 [4])	IC50 (Histone deacetylase 4 [5])	Structure (SMILES)	also measured
–	–	–	–	O=C(CCCCCCC(=O)Nc1ccccc1)NO [VORINOSTAT]	CC50 (CCRF-CEM [1]): 2.5 µM; CC50 (HeLa [2]): 2.8 µM
> 50 µM	Active	Active	4 µM	O=C(COc1ccc2cc(/C=C3/SC(=O)NC3=O)ccc2c1)Nc1cc(Cl)cc(C(F)(F)F)c1	–
> 50 µM	Active	Active	4.9 µM	O=C(COc1ccc2cc(/C=C3/SC(=O)NC3=O)ccc2c1)Nc1ccc(Br)c(Br)c1	–
17 µM	Active	Active	3.6 µM	CCOc1ccc2nc(NC(=O)COc3ccc4cc(/C=C5/SC(=O)NC5=O)ccc4c3)sc2c1	–
2.3 µM	–	–	15 µM	O=C(COc1ccc2ccccc2c1/C=C1\SC(=O)NC1=O)Nc1ccc([N+](=O)[O-])cc1	–
4.5 µM	Active	Active	2.1 µM	O=C(COc1ccc2cc(/C=C3/SC(=O)NC3=O)ccc2c1)Nc1ccccc1	–
> 50 µM	–	–	1.9 µM	O=C(COc1ccc2cc(/C=C3/SC(=O)NC3=O)ccc2c1)Nc1ccc(Br)cc1F	CC50 (SH-SY5Y [15]): 16 µM; CC50 (CCRF-CEM [1]): 40.9 µM; CC50 (HS27 [16]): 57 µM
9 µM	–	–	1.7 µM	Cc1ccc(NC(=O)COc2ccc3cc(/C=C4/SC(=O)NC4=O)ccc3c2)cc1	CC50 (SH-SY5Y [15]): 49.5 µM; CC50 (CCRF-CEM [1]): 2.8 µM; CC50 (Ramos [9]): 7 µM; Activity [17]: Non-Toxic; CC50 (HeLa [2]): 10.3 µM; Activity [18]: Non-Toxic; CC50 (HS27 [16]): 40.2 µM
> 50 µM	Active	Active	1.1 µM	Cc1ccc(NC(=O)COc2ccc3cc(/C=C4/SC(=O)NC4=O)ccc3c2)cc1Cl	–
> 50 µM	Active	Active	3.9 µM	O=C(COc1ccc2cc(/C=C3/SC(=O)NC3=O)ccc2c1)Nc1ccc(F)cc1F	–
16 µM	–	–	2.9 µM	O=C(COc1ccc2cc(/C=C3/SC(=O)NC3=O)ccc2c1)Nc1ccc(Br)cc1	CC50 (HeLa [2]): 10.1 µM
6.6 µM	Active	Active	1.6 µM	O=C(COc1ccc2cc(/C=C3/SC(=O)NC3=O)ccc2c1)Nc1ccc(F)cc1	–
–	–	–	–	COc1cccc2c1C(=O)c1c(O)c3c(c(O)c1C2=O)C[C@@](O)(C(=O)CO)C[C@@H]3O[C@H]1C[C@H](N)[C@H](O)[C@H](C)O1 [DOXORUBICIN]	Activity [19]: Non-Toxic
7.5 µM	Active	Active	1.1 µM	Cc1cccc(NC(=O)COc2ccc3cc(/C=C4/SC(=O)NC4=O)ccc3c2)n1	–
> 50 µM	Active	Active	4.7 µM	COc1ccc(NC(=O)COc2ccc3cc(/C=C4/SC(=O)NC4=O)ccc3c2)cc1	–
> 50 µM	Active	Active	5.5 µM	O=C(COc1ccc2cc(/C=C3/SC(=O)NC3=O)ccc2c1)Nc1ccc(Cl)c(Cl)c1	–
5.8 µM	Active	Active	1.2 µM	Cc1cccc2sc(NC(=O)COc3ccc4cc(/C=C5/SC(=O)NC5=O)ccc4c3)nc12	–
7.2 µM	Active	Active	0.84 µM	O=C(COc1ccc2cc(/C=C3/SC(=O)NC3=O)ccc2c1)Nc1cccc(F)n1	–
9.3 µM	–	–	–	O=C(CN1C(=O)S/C(=C/c2ccccn2)C1=O)Nc1nc2ccccc2s1	–
–	–	–	–	CCc1ccc(CCOc2ccc(CC3SC(=O)NC3=O)cc2)nc1 (configuration not stated) [PIOGLITAZONE]	Activity (HeLa [6]): 0%; Activity (CCRF-CEM [23]): 0%
> 50 µM	Active	Active	17 µM	O=C(COc1ccc2cc(/C=C3/SC(=O)NC3=O)ccc2c1)Nc1ccccn1	–
2.7 µM	Active	Active	0.42 µM	O=C(COc1ccc2cc(/C=C3/SC(=O)NC3=O)ccc2c1)Nc1nc2ccccc2s1	–
7.4 µM	–	–	0.55 µM	Cc1cc(Br)ccc1NC(=O)COc1ccc2cc(/C=C3/SC(=O)NC3=O)ccc2c1	CC50 (SH-SY5Y [15]): 91.1 µM; CC50 (HeLa [2]): 9.9 µM
> 50 µM	Active	Active	1.7 µM	Cc1cc(NC(=O)COc2ccc3cc(/C=C4/SC(=O)NC4=O)ccc3c2)no1	–

Structure (SMILES)	IC50 (Histone deacetylase 8)	inhibition [3]	inhibition (Histone deacetylase 4 [4])	IC50 (Histone deacetylase 4 [5])	also measured
O=C(COc1ccc2cc(/C=C3/SC(=O)NC3=O)ccc2c1)Nc1cccc(Cl)c1	> 50 µM	Active	Active	3.8 µM	Activity (HeLa [6]): 29.68%; Activity (MDA-MB-231 [7]): 2.84%; Activity (HS27 [8]): 22.56%; CC50 (CCRF-CEM [1]): 10.6 µM; CC50 (Ramos [9]): 9.1 µM; Activity (Ramos [10]): >40%; Selectivity Index [11]: >10; Activity (SH-SY5Y [12]): 10.79%; Selectivity Index [13]: >10; Activity (CCRF-CEM [14]): >40%; Activity (HL-60): 27.58%
COc1cccc(NC(=O)COc2ccc3cc(/C=C4/SC(=O)NC4=O)ccc3c2)c1	7.6 µM	Active	Active	1.6 µM	Activity (MDA-MB-231 [7]): >40%; Activity (HS27 [8]): 24.69%; CC50 (CCRF-CEM [1]): 10.7 µM; CC50 (Ramos [9]): 9.3 µM; CC50 (MDA-MB-231 [20]): 9.8 µM; Activity (Ramos [10]): >40%; Selectivity Index [11]: >10; CC50 (HeLa [2]): 10.4 µM; Activity (SH-SY5Y [12]): 0%; Selectivity Index [13]: >10; Activity (CCRF-CEM [14]): >40%; Activity (HL-60): 0%; Selectivity Index [21]: >10; Selectivity Index [22]: >10
O=C(COc1ccc2cc(/C=C3/SC(=O)NC3=O)ccc2c1)Nc1cccc(C(F)(F)F)c1	> 50 µM	Active	Active	2.5 µM	Activity (HeLa [6]): 39.09%; Activity (MDA-MB-231 [7]): 5.96%; CC50 (Ramos [9]): 6.2 µM; Activity (Ramos [10]): >40%; Activity (SH-SY5Y [12]): 0%; Selectivity Index [13]: >10; Activity (CCRF-CEM [14]): 25.87%; Activity (HL-60): 19.55%
O=C(COc1ccc2cc(/C=C3/SC(=O)NC3=O)ccc2c1)Nc1c(F)cc(F)cc1Br	> 50 µM	–	–	1.1 µM	CC50 (SH-SY5Y [15]): 21.8 µM; CC50 (CCRF-CEM [1]): 9.6 µM; CC50 (Ramos [9]): 9.6 µM; CC50 (MDA-MB-231 [20]): 9.8 µM; CC50 (HeLa [2]): 10.4 µM; CC50 (HS27 [16]): 39.9 µM
O=C(COc1ccc2cc(/C=C3/SC(=O)NC3=O)ccc2c1)Nc1ccc([N+](=O)[O-])cc1	4 µM	–	–	1.7 µM	CC50 (MDA-MB-231 [20]): 55.8 µM
O=C(COc1ccc2cc(/C=C3/SC(=O)NC3=O)ccc2c1)Nc1ccccc1Oc1ccccc1	> 50 µM	Active	Active	5.2 µM	Activity (MDA-MB-231 [7]): >40%; CC50 (SH-SY5Y [15]): 52.3 µM; CC50 (Ramos [9]): 10 µM; CC50 (MDA-MB-231 [20]): 10.3 µM; Activity (Ramos [10]): >40%; CC50 (HeLa [2]): 10.2 µM; Activity (SH-SY5Y [12]): >40%; Selectivity Index [13]: >10; Activity (CCRF-CEM [14]): 40.24%; Activity (HL-60): 0%; Selectivity Index [24]: >10; Selectivity Index [21]: >10; Selectivity Index [22]: >10
